Assay results reported in patent publication US20150080468A1, “COMPOSITION AND METHOD FOR PROCESSING AND DELIVERING BIOAVAILABLE METHIONINE ANALOGS, DERIVATIVES, AND PRECURSORS, THEREOF” (QUALITY LIQUID FEEDS, priority 2013, published 2015).
Values after ≈ are worked out from the molar mass of the structure shown. Values joined by “and” are separate entries in the source; they are usually repeats but may differ in a detail not shown here. Identical values can stand only once.

Columns and labels:
[1] = Sub-zero freezing and thawing of 3×, 4× and 100% HMBi after the 56 day study; assay type: physicochemical
Procedure: Each bar represents a data collection day: 1, 7, 14, 21, 29, 35, 42, 50, and 56 days. […] Mixing or re-circulation every other day will also maintain positional and product stability plus decrease product viscosity. Additionally, lower temperatures were tried for the 3× and 4× plus the HMBi straight or 100% additive after the 56 day study. […] However, the 100% HMBi was frozen solid. The liquid 100% HMBi freezes or solidifies at temperatures below 54° F. or 12° C. when the HMBi liquid is acted upon by an outside force such as mixing or pumping. This “Superfusion” property of the liquid 100% HMBi requires expensive heated storage equipment and plumbing to allow for use in a feed mill environment. After 72 hours in a deep freeze, the 3× and 4× also froze solid.

[2] = Freeze/thaw study: viscosity, flowability and superfusion (Example 2); assay type: physicochemical
Procedure: A range of inclusion rates of the HMBi was used in the second example to further investigate the reduction or retardation of the superfusion property of the methionine analog (HMBi) added to a simple feed mill blend molasses liquid product.
Eight formulations were evaluated in regards to product positional stability, product pH, temperature, viscosity as affected by temperature and time. Viscosity measurements were being used to determine flow ability thus whether or not the product can be pumped without external heating. If HMBi is stored in conditions where its temperature drops below 54° F. (12.2° C.), it will solidify or undergo superfusion which will not allow it to be pumped. As you can see in FIG. 6, the HMBi is solid and will remain solid for several hours while thawing. During the thawing process, the HMBi will liquefy with a solid ball surrounded by liquid. This solid ball could potentially plug the inside fixture of a tank not allowing for flow to the pump. During the Example E2 study, it took about eight days of the 100% HMBi in sub-zero temperatures before it underwent superfusion. The container in FIG. 6 had to be shaken quite vigorously to get the HMBi to solidify. It was not moved until the late afternoon of day 7. By the morning of day 8, it was solid.
The containers used were clear PET plastic one quart capacity with wide mouth openings. All samples were placed in a sub-zero freezer until the samples were solid. As stated above, it took eight days for the 100% HMBi to undergo the superfusion process, thus all eight samples were frozen solid at about −9° F. (−22.8° C.) which is exactly what was needed for Example E2.
Once all samples were frozen, they were moved to a force-draft fume hood to allow warm air to be drawn over the jars to hasten thawing. When the samples were soft enough to get a metal tipped thermometer into the samples, temperatures were taken and recorded. Viscosity was measured once the samples thawed enough; temperatures were also taken at that time. The process of freezing and thawing was repeated once. These samples were not stirred or shaken except for the 100% HMBi sample to get it to undergo superfusion.
All formulated samples were mixed by the procedures and using the equipment described in Example E1. The same temperature probe, viscometer, and pH meter were also used.
Observations and data were collected when the samples had thawed enough to allow for viscosity and temperature measurements. The freezing and thawing was repeated once to confirm results. Laboratory room temperature was between 68 to 70° F. Any product having a viscosity over 5,000 cPs using a spindle sO5 will not flow nor be pumpable without added heat.

[3] = cited from earlier work
[4] = dairy cows; cited from earlier work

Flowability / state ([1]; less than 0° F. or -17.8° C. for 24 hours): frozen solid
Further time until return to a liquid state ([1]; thawing after deep freeze): about 12 hours
Temperature at return to a liquid state ([1]; thawing after deep freeze): approximately 56 ° F.
Viscosity ([2]; Dec. 31, 2009, initial, 77.3-79.6 °F, spindle sO1/sO2): 37 cPs
Viscosity ([2]; Jan. 1, 2010, in freezer, -1.0 to 1.3 °F, spindle sO6 (100%: sO1)): 174 cPs and 173.6 cPs
Viscosity ([2]; Jan. 2, 2010, in freezer, -3.9 to -0.2 °F, spindle sO6 (100%: sO1)): 157.6 cPs
Physical state (no viscosity reading) ([2]; Jan. 14, 2010, 2:59-3:34 PM, thawing): solid
Physical state (no viscosity reading) ([2]; Jan. 14, 2010, 2:59-3:34 PM, thawing, listed as 100%): SOLID
Physical state (no viscosity reading) ([2]; Jan. 14, 2010, 3:50-4:15 PM, thawing): still solid
Physical state (no viscosity reading) ([2]; Jan. 14, 2010, 3:50-4:15 PM, thawing, listed as 100%): SOLID
Physical state (no viscosity reading) ([2]; Jan. 14, 2010, 4:40-5:10 PM, thawing, 47.7 °F): semi-solid
Physical state (no viscosity reading) ([2]; Jan. 14, 2010, 4:40-5:10 PM, thawing, 47.7 °F, listed as 100%): SEMI-SOLID
Physical state (no viscosity reading) ([2]; Jan. 15, 2010, 4:19-4:51 PM, second thaw, 45.0 °F): semi-solid
Physical state (no viscosity reading) ([2]; Jan. 15, 2010, 4:19-4:51 PM, second thaw, 45.0 °F, listed as 100%): SEMI-SOLID
Physical state (no viscosity reading) ([2]; Jan. 15, 2010, 10:55-11:20 AM, second freeze): solid
Physical state (no viscosity reading) ([2]; Jan. 15, 2010, 10:55-11:20 AM, second freeze, listed as 100%): SOLID
Physical state (no viscosity reading) ([2]; Jan. 15, 2010, 12:05-12:27, second thaw): semi-solid
Physical state (no viscosity reading) ([2]; Jan. 15, 2010, 12:05-12:27, second thaw, listed as 100%): SOLID
Time in sub-zero temperatures before superfusion ([2]; sub-zero freezer, shaken on day 7): about eight
SMILES: CSCCC(O)C(=O)OC(C)C (stereo not shown) [100% HMBi, isopropyl ester of 2-hydroxy-4-methylthiobutanoic acid]
Viscosity at 20° C. ([3]; 20 °C): 19.2 mPa/s
Crystallization (solidification, superfusion) temperature ([3]; ambient pressure): below 54 ° F.
pH ([3]; in a 1% aqueous solution): 3.6
Solubility ([3]; water at 30° C.): 25.1 mg/mL (≈ 131 mM)
metabolizable methionine provided [4]: 370 g/kg
rumen available HMB provided [4]: 370 g/kg
